In patent US20260344668A1, “PHENYLPYRAZOLE COMPOUND, AND PLANT DISEASE CONTROL METHOD” (priority 2022, published 2026):

Tests used:
Septoria tritici = test: Test Example 10 Control Test Against Wheat Leaf Blotch (pot test); assay type: in vivo; conditions: 200 ppm foliage spray, wheat (Apogee), inoculated after 4 days
Experimental: (§1) The term of “non-treated well” in Test Example 4, Test Example 5, and Test Example 6 represents a well wherein a test was carried out under the same conditions as those described in each Test Example except for dispensing DMSO instead of a diluted solution with DMSO comprising the Present compound. Also, the term of “non-treated” in Test Examples 15 to 17 represents a test which was carried out under the same conditions as those described in each Test Example except for dispensing DMSO instead of a diluted solution with DMSO comprising the Present compound. Also, the term of “non-treated leaf disk” in Test Example 7 represents a leaf disk wherein a test was carried out under the same conditions as those described in the Test Example except for dispensing DMSO instead of a diluted solution with DMSO comprising the Present compound. Also, the term of “non-treated” in Test Example 10 and Test Example 11 means that a diluted solution with water of a formulation comprising the Present compound was not sprayed.
A plastic pot was filled with soil, wheat (cultivar: Apogee) was seeded thereto, and cultured in a greenhouse for 10 days. […]

[1] = test system: soybean rust fungus (Phakopsora pachyrhizi) having an amino acid substitution of F129L in a mitochondrial cytochrome b protein; test: Test Example 7 Control Test Against Soybean Rust (leaf disk); assay type: in vivo; conditions: 200 ppm, 10 μL per soybean leaf disk (cultivar: Kurosengoku), inoculated after 1 day
Method in brief: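 Soybean (Kurosengoku) leaf disks of 1 cm on 1.2% agar were sprayed with compound in a DMSO/xylene/Sorpol emulsion diluted in water to a prescribed concentration. One day later they were spray-inoculated with F129L cytochrome b mutant P. pachyrhizi spores (1.0×10^5/mL) and kept at 23 °C, 60% humidity, 6 h light, for about 13 days. Lesion area was compared with DMSO-treated disks.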

Phakopsora pachyrhizi [2] = test: Test Example 16 Control Test Against Soybean Rust Fungus (spore germination, petri dish); assay type: cell-based; conditions: treatment concentration 10 ppm, 23° C., 1 day
Experimental: as §1
An agar medium (agar concentration: 1.0%) (3 mL) was placed in a plastic petri dish having a diameter of 3.5 cm, and solidified. Each Present compound was diluted with DMSO in such a way that the resulting diluted solution containing 10000 ppm of the compound, and said solution (1 μL) and an aqueous suspension (1.0×10^4/mL) (999 μL) of spores of Phakopsora pachyrhizi to which spores of Phakopsora pachyrhizi were suspended were mixed, and then the resulting mixture was dispensed into the plastic petri dish. This plastic petri dish was cultured at 23° C. for 1 day, and then germinated spores of Phakopsora pachyrhizi were counted. As a result, when the treatment concentration was 10 ppm, and any one of the Present compound 9, 10, 28, 29, or 32 was used as the test compound to carry out the test, the number of germinated spores in each plastic petri dish using the above each Present compound as the test compound was 50% or less relative to the number of germinated spores in the non-treated plastic petri dish.

Phakopsora pachyrhizi [3] = test: Test Example 11 Control Test Against Soybean Rust (pot test, spraying before inoculation); assay type: in vivo; conditions: 200 ppm foliage spray, soybeans (Kurosengoku), inoculated after 2 to 5 days
Method in brief: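 Soybeans (cv. Kurosengoku), grown 10–14 days in pots, foliar-sprayed with formulated compound at 200 ppm, inoculated 2–5 days later with Phakopsora pachyrhizi spores. Kept humid 1–2 days at 23 °C day/20 °C night, then greenhouse 12 days; lesion area scored against unsprayed plants.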

Cochliobolus miyabeanus = test: Test Example 6 Control Test Against Rice Brown Spot Fungus (96 well titer plate growth); assay type: cell-based; conditions: 1 μL of 150 ppm DMSO solution + 150 μL YB liquid medium, 23° C., 3 days, absorbance at 550 nm
Experimental: as §1
Each of the Present compound 17, 33, 36, 37, 39, 40, 41, 42, 43, 44, 48, 49, 50, 51, 52, 53, 62, 68, 69, 70, 71, 76, 77, 79, 80, 81, 82, 83, 84, or 97 was diluted with DMSO to obtain a diluted solution containing 150 ppm of each compound, and 1 μL of the diluted solution was dispensed into a titer plate (96 well), and thereto was then dispensed 150 μL of a YB liquid medium to which spores of Cochliobolus miyabeanus were inoculated in advance. This plate was cultured at 23° C. for 3 days, thereby allowing Cochliobolus miyabeanus to undergo proliferation, and the absorbance at 550 nm of each well of the titer plate was then measured to determine a degree of growth of Cochliobolus miyabeanus. As a result, the degree of growth in the well treated with each of the above Present compounds was 50% or less relative to the degree of growth in the non-treated well.

Phakopsora pachyrhizi [4] = test: Test Example 15 Control Test Against Soybean Rust Fungus (spore germination, 96 well titer plate); assay type: cell-based; conditions: treatment concentration 1 ppm, 23° C., several hours
Method in brief: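 Compound in DMSO was added to an aqueous Phakopsora pachyrhizi spore suspension (1.0×10^4/mL) and incubated several hours at 23° C. Germinated spores were counted relative to DMSO-only wells.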

Cladosporium carpophilum = test: Test Example 5 Control Test Against Peach Scab Fungus (96 well titer plate growth); assay type: cell-based; conditions: 1 μL of 150 ppm DMSO solution + 150 μL PDB medium, 18° C., 5 days, absorbance at 550 nm
Experimental: as §1
Each of the Present compound 79, 80, 81, 89, 92, 93, 96, or 99 was diluted with DMSO to obtain a diluted solution containing 150 ppm of each compound, and 1 μL of the diluted solution was dispensed into a titer plate (96 well), and thereto was then dispensed 150 μL of a potato dextrose broth medium (PDB medium) to which spores of Cladosporium carpophilum were inoculated in advance. This plate was cultured at 18° C. for 5 days, thereby allowing Cladosporium carpophilum to undergo proliferation, and the absorbance at 550 nm of each well of the titer plate was then measured to determine a degree of growth of Cladosporium carpophilum. As a result, the degree of growth in the well treated with each of the above Present compound was 50% or less relative to the degree of growth in the non-treated well.

SMILES | lesion area relative to the lesion area in the non-treated wheat (Septoria tritici) [%] | lesion area relative to the lesion area of non-treated leaf disk [1] [%] | number of germinated spores relative to the non-treated plastic petri dish (Phakopsora pachyrhizi [2]) [%] | lesion area relative to the lesion area in the non-treated soybeans (Phakopsora pachyrhizi [3]) [%] | degree of growth relative to the degree of growth in the non-treated well (Cochliobolus miyabeanus) [%] | number of germinated spores relative to the non-treated well (Phakopsora pachyrhizi [4]) [%] | degree of growth relative to the degree of growth in the non-treated well (Cladosporium carpophilum) [%]
O=S(=O)(c1ccccc1)n1ccc(-c2ccc(Cl)cc2)n1 [compound 4] | ≤ 30 | – | – | – | – | – | –
O=S(=O)(c1ccccc1)n1ccc(-c2cc(F)c(Br)c(F)c2)n1 [compound 9] | – | ≤ 30 | ≤ 50 | ≤ 30 | – | – | –
O=S(=O)(c1cccnc1)n1ccc(-c2cc(F)c(Br)c(F)c2)n1 [compound 10] | – | ≤ 30 | ≤ 50 | ≤ 30 | – | – | –
Cc1ccc(S(=O)(=O)n2ccc(-c3cccc(F)c3)n2)cc1 [compound 28] | – | – | ≤ 50 | – | – | – | –
Cc1ccc(S(=O)(=O)n2ccc(-c3ccc(F)cc3)n2)cc1 [compound 29] | – | – | ≤ 50 | – | – | – | –
Cn1cnc(S(=O)(=O)n2ccc(-c3cccc(C(=O)NC4CC4)c3)n2)c1 [compound 31] | ≤ 30 | – | – | – | – | – | –
Cn1cnc(S(=O)(=O)n2ccc(-c3cc(F)c(Br)c(F)c3)n2)c1 [compound 32] | – | ≤ 30 | ≤ 50 | – | – | – | –
Cc1ccc(-c2ccn(S(=O)(=O)c3ccco3)n2)cc1 [compound 76] | – | ≤ 30 | – | ≤ 30 | ≤ 50 | ≤ 50 | –
Cc1ccc(-c2ccn(S(=O)(=O)c3ccoc3)n2)cc1 [compound 77] | – | ≤ 30 | – | ≤ 30 | ≤ 50 | ≤ 50 | –
O=S(=O)(c1ccco1)n1ccc(-c2ccc(Cl)cc2)n1 [compound 79] | – | ≤ 30 | – | ≤ 30 | ≤ 50 | ≤ 50 | ≤ 50
O=S(=O)(c1ccoc1)n1ccc(-c2ccc(Cl)cc2)n1 [compound 80] | – | ≤ 30 | – | ≤ 30 | ≤ 50 | ≤ 50 | ≤ 50
O=S(=O)(c1cccs1)n1ccc(-c2ccc(Cl)cc2)n1 [compound 81] | – | ≤ 30 | – | ≤ 30 | ≤ 50 | ≤ 50 | ≤ 50
O=S(=O)(c1ccco1)n1ccc(-c2ccc(I)cc2)n1 [compound 82] | – | ≤ 30 | – | ≤ 30 | ≤ 50 | ≤ 50 | –
O=S(=O)(c1ccoc1)n1ccc(-c2ccc(I)cc2)n1 [compound 83] | – | ≤ 30 | – | ≤ 30 | ≤ 50 | ≤ 50 | –
O=S(=O)(c1cccs1)n1ccc(-c2ccc(I)cc2)n1 [compound 84] | – | ≤ 30 | – | ≤ 30 | ≤ 50 | ≤ 50 | –
O=S(=O)(c1ccoc1)n1ccc(-c2ccc(F)cc2)n1 [compound 89] | – | ≤ 30 | – | ≤ 30 | – | ≤ 50 | ≤ 50
O=S(=O)(c1ccoc1)n1ccc(-c2ccc(F)c(F)c2)n1 [compound 92] | – | ≤ 30 | – | ≤ 30 | – | ≤ 50 | ≤ 50
O=S(=O)(c1cccs1)n1ccc(-c2ccc(F)c(F)c2)n1 [compound 93] | – | ≤ 30 | – | ≤ 30 | – | ≤ 50 | ≤ 50
O=S(=O)(c1cccs1)n1ccc(-c2cccc(F)c2)n1 [compound 96] | – | ≤ 30 | – | ≤ 30 | – | ≤ 50 | ≤ 50
Cc1ccc(-c2ccn(S(=O)(=O)c3cccnc3)n2)cc1F [compound 97] | – | ≤ 30 | – | ≤ 30 | ≤ 50 | ≤ 50 | –
Cc1ccc(-c2ccn(S(=O)(=O)c3cccnc3)n2)cc1 [compound 99] | – | ≤ 30 | – | ≤ 30 | – | ≤ 50 | ≤ 50
